Data set [1] can be described thus: logP determination by HPLC on a reversed-phase column (C18), EEC Directive 79/831 Annex V.A8. It counts as physicochemical. The note with it: for log P: HPLC-MS, reversed-phase column (C18).
Data set [2] relates to Ctenocephalides felis. The data set can be described thus: Ctenocephalides felis - oral test. It counts as in vivo. The following applies: application rate 100 ppm in citrated cattle blood, adult fleas, kill after 2 days; for pest or weed control at 100 ppm: Ctenocephalides felis, po, 48 h, read-out: efficacy. The gist of the method: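 Compound dissolved in DMSO (10 mg in 0.5 ml stock) and diluted with citrated cattle blood to test concentration. About 20 unfed adult fleas fed on the treated blood through a parafilm membrane. Kill (%) scored after 2 days; 100% = all fleas dead.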

The subject of the next data set is Lucilia cuprina. Put plainly: Lucilia cuprina test. It counts as in vivo. The following applies: application rate 100 ppm, L1 larvae in minced horsemeat, kill after 2 days; for pest or weed control at 100 ppm: Lucilia cuprina, 48 h, read-out: efficacy. Put shortly:
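About 20 L1 larvae placed on minced horsemeat treated with compound, formulated in DMSO and diluted with water to test concentration. Kill in % scored after 2 days (100% = all larvae dead, 0% = none).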

Another data set concerns Phaedon cochleariae. Put plainly: Phaedon cochleariae - spray test. It counts as in vivo. The following applies: application rate 100 g/ha, larvae on Chinese cabbage leaf discs, after 7 days; for pest or weed control at 100 g/ha: Phaedon cochleariae, foliar, 168 h, read-out: efficacy. How it is done:
Phaedon cochleariae—Spray Test
(§1) Solvent: 78.0 parts by weight of acetone and 1.5 parts by weight of dimethylformamide
(§2) Emulsifier: alkylaryl polyglycol ether
(§3) To produce an appropriate active ingredient formulation, 1 part by weight of active ingredient is dissolved using the specified parts by weight of solvent and made up with water containing an emulsifier concentration of 1000 ppm until the desired concentration is attained. To produce further test concentrations, the preparation is diluted with emulsifier-containing water.
Discs of Chinese cabbage leaves (Brassica pekinensis) are sprayed with an active ingredient formulation of the desired concentration and, after drying, populated with larvae of the mustard beetle (Phaedon cochleariae).
After 7 days, efficacy in % is determined. 100% means that all the beetle larvae have been killed; 0% means that no beetle larvae have been killed.

Another data set has as its system Spodoptera frugiperda. The data set can be described thus: Spodoptera frugiperda - spray test. It counts as in vivo. The following applies: foliar, 168 h, application rate 100 g/ha, caterpillars on maize leaf discs, after 7 days, read-out: efficacy. How it is done:
Spodoptera frugiperda—Spray Test
as §1, §2, §3
Leaf discs of maize (Zea mays) are sprayed with an active ingredient formulation of the desired concentration and, after drying, populated with caterpillars of the armyworm (Spodoptera frugiperda).
After 7 days, efficacy in % is determined. 100% means that all the caterpillars have been killed; 0% means that no caterpillars have been killed.

The subject of another data set is Tetranychus urticae. The data set can be described thus: Tetranychus urticae - spray test, OP-resistant. It counts as in vivo. The note with it: foliar, 144 h, application rate 100 g/ha, bean leaf discs, after 6 days, read-out: efficacy. How it is done:
Tetranychus urticae—Spray Test, OP-Resistant
as §1, §2, §3
Discs of bean leaves (Phaseolus vulgaris) infested by all stages of the greenhouse red spider mite (Tetranychus urticae) are sprayed with an active ingredient formulation of the desired concentration.
After 6 days, efficacy in % is determined. 100% means that all the spider mites have been killed; 0% means that none of the spider mites have been killed.

In data set [3] the test system is Ctenocephalides felis. Put plainly: Ctenocephalides felis - in vitro contact tests with adult cat fleas. It counts as in vivo. The note with it: application rate 5 μg/cm^2 (=500 g/ha), after 48 h (dead or moribund). Put shortly: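 Acetone solution coated on test-tube inner walls (900 ppm gives 5 μg/cm^2). After drying, 5-10 adult cat fleas added and kept horizontal at room temperature and ambient humidity. At 48 h fleas knocked down; motionless or uncoordinated ones counted dead/moribund, giving % efficacy.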

The test system of the next data set is Amblyomma hebraeum. The data set can be described thus: Amblyomma hebraeum test (tick nymphs, immersion). It counts as in vivo. The following applies: application rate 100 ppm; tick nymphs immersed for one minute; kill after 42 days. The gist of the method: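 Tick nymphs immersed for one minute in compound diluted in water from a DMSO concentrate, then held on filter paper in a Petri dish in a climate-controlled cabinet. Kill (%) scored after 42 days; 100% means all ticks dead, 0% none.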

The next data set concerns Boophilus microplus. Put plainly: Boophilus microplus - injection test. It counts as in vivo. The note with it: application rate 20 μg/animal; injected into engorged adult female ticks; laying of fertile eggs, after 7 days. The gist of the method:
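Engorged adult female Boophilus microplus ticks (5 per dose) each received a 1 μl abdominal injection of compound in DMSO and were held in a climate-controlled room. Efficacy was scored after 7 days from fertile egg laying, with unclear eggs kept until hatching (~42 days); 100% means no fertile eggs.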

For data set [4], the system named is Boophilus microplus Parkhurst strain, SP-resistant. Put plainly: Boophilus microplus - dip test. The following applies: application rate 100 ppm; dip of engorged adult female ticks; laying of fertile eggs, after 7 days. It counts as in vivo. The gist of the method:
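Adult engorged females of SP-resistant Parkhurst strain (8–10 per tube) fully immersed in compound diluted in water from a DMSO solution. Ticks then kept on filter discs in a climate-controlled room; efficacy scored from fertile egg laying at 7 days, with unclear eggs held about 42 days until hatch (100% = no fertile eggs).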

Another data set has as its system Musca domestica. The data set can be described thus: Musca domestica test. It counts as in vivo. The note with it: application rate 100 ppm; adult houseflies; kill after 2 days. Put shortly: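 Compound dissolved in DMSO (10 mg per 0.5 ml) and diluted with water to the test concentration. Sponges soaked with sugar solution plus formulation were offered to 10 adult houseflies per vessel. Mortality (% kill, 100% = all dead, 0% = none) scored after 2 days.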

A further data set deals with Rhipicephalus sanguineus. The data set can be described thus: Rhipicephalus sanguineus - in vitro contact tests with adult brown dog ticks. It counts as in vivo. The gist of the method: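 Test compound was dissolved in acetone p.a. (9 mg in 1 ml, then diluted), and 250 μl were spread evenly over the inner surface of 25 ml test tubes on an orbital shaker at 30 rpm for 2 h. Once the solvent evaporated, 5-10 adult Rhipicephalus sanguineus ticks were sealed in, kept dark at room temperature, and after 48 h placed on a 45-50° C. hotplate to score dead or moribund ticks.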

Where [5] appears, read: reversed-phase HPLC column (C18), HPLC, reversed-phase C18, acetonitrile/water with formic acid, 55° C., read-out: logP.
[6] abbreviates: reversed-phase HPLC column (C18), HPLC-MS method a), Table I-T3; read-out: logP^a).
Where [7] appears, read: reversed-phase HPLC column (C18), HPLC-MS method a); read-out: logP^a).
[8] abbreviates: application rate 5 μg/cm^2, after 48 h (dead or moribund).

Usually log P stands for a log measure of how a compound divides between an organic and an aqueous phase. Higher therefore signals higher lipophilicity.

Read-outs that look alike come from different tables or passages of the source.

For the compound `O=C(NC1CC1)c1cc(-c2cnn(-c3c(F)cc(C(F)(F)F)cc3F)c2)ccc1Cl` [I-T3-48, 2-chloro-N-cyclopropyl-5-[1-[2,6-difluoro-4-(trifluoromethyl)phenyl]pyrazol-4-yl]benzamide], the chromatographic logP in [1] (setting [5]), in data set [1] (setting [6]) and in data set [1] (setting [7]) was 3.2 throughout. Moreover, the pest or weed control at 100 ppm in the data set with Ctenocephalides felis [2] and with Lucilia cuprina was 100% each time. In addition, the pest or weed control at 100 g/ha in the data set on Phaedon cochleariae and in the data set with Spodoptera frugiperda was 100% each time.
In the case of `Cc1cc(C(F)(C(F)(F)F)C(F)(F)F)cc(C)c1-c1cc(-c2ccc(Cl)c(C(=O)NC3CC3)c2)on1` [I-T22-1, 2-chloro-N-cyclopropyl-5-[3-[2,6-dimethyl-4-[1,2,2,2-tetrafluoro-1-(trifluoromethyl)ethyl]phenyl]isoxazol-5-yl]benzamide], the chromatographic logP in data set [1] (setting [5]) turned out to be 4.75. Moreover, the pest or weed control at 100 ppm in the data set with Ctenocephalides felis [2] and with Lucilia cuprina was 100% in each case. Besides, the values for the pest or weed control at 100 g/ha with Phaedon cochleariae, in the data set on Spodoptera frugiperda and in the data set on Tetranychus urticae were 100%, 100% and 90%, respectively.
`COc1cc(C(F)(F)F)cc(F)c1-n1cc(-c2ccc(Cl)c(C(=O)NC3CC3)c2)cn1` [I-T3-50, 2-chloro-N-cyclopropyl-5-[1-[2-fluoro-6-methoxy-4-(trifluoromethyl)phenyl]pyrazol-4-yl]benzamide]: the chromatographic logP in [1] (setting [5]), in [1] (setting [6]) and in [1] (setting [7]) was 3.1 in each case. Also, the pest or weed control at 100 ppm in the data set with Ctenocephalides felis [2] and in the data set with Lucilia cuprina was 100% each time. The values for the pest or weed control at 100 g/ha in the data set with Phaedon cochleariae, in the data set with Spodoptera frugiperda and with Tetranychus urticae were 100%, 83% and 90%, respectively.
For `Cc1cc(C(F)(C(F)(F)F)C(F)(F)F)cc(C)c1-c1ccn(-c2ccc(Cl)c(C(=O)NC3CC3)c2)n1` [I-T2-1, 2-chloro-N-cyclopropyl-5-[3-[2,6-dimethyl-4-[1,2,2,2-tetrafluoro-1-(trifluoromethyl)ethyl]phenyl]pyrazol-1-yl]benzamide], the chromatographic logP in data set [1] (setting [5]) and in data set [1] (setting [7]) was 4.9 in each case. Besides, in the data set on Phaedon cochleariae, the pest or weed control at 100 g/ha worked out at 100%.
In the case of `Cc1ncc(-c2cnn(-c3c(Cl)cc(C(F)(C(F)(F)F)C(F)(F)F)cc3C(F)(F)F)c2)cc1C(=O)NC1(C#N)CC1` [I-T3-125], the “log P” value in data set [1] is 3.8. Moreover, the efficacy (with Ctenocephalides felis [3]; with Amblyomma hebraeum; in the data set on Boophilus microplus; in data set [4]; in the data set on Ctenocephalides felis [2]; in the data set on Lucilia cuprina) was 100% each time. In addition, the efficacy in the data set on Musca domestica and in the data set on Phaedon cochleariae was 100% each time.
Turning to `N#CC1(NC(=O)c2cc(-c3cnn(-c4c(Br)cc(C(F)(C(F)(F)F)C(F)(F)F)cc4C(F)(F)F)c3)ccc2Cl)CC1` [I-T3-155], in data set [1], the “log P” value came out at 4.4. In addition, the efficacy (with Rhipicephalus sanguineus (setting [8]); in the data set on Ctenocephalides felis [3]; in the data set on Amblyomma hebraeum; with Boophilus microplus; in [4]; in the data set with Ctenocephalides felis [2]) was 100% in each case. Also, the efficacy with Lucilia cuprina and in the data set on Musca domestica was 100% each time.
As to `Cc1cc(C(F)(C(F)(F)F)C(F)(F)F)cc(Cl)c1-n1cc(-c2ccc(Cl)c(C(=O)NC3(C#N)CC3)c2)cn1` [I-T3-64], the “logP^a)” value in data set [1] (HPLC-MS method a), Table I-T3) is 4.2. Also, the efficacy in the data set on Rhipicephalus sanguineus (application rate 0.2 μg/cm^2, after 48 h (dead or moribund)) stood at 80%; in the data set on Ctenocephalides felis [3], 100%; in the data set on Amblyomma hebraeum, 100%; in the data set with Boophilus microplus, 100%; in data set [4], 100%; in the data set on Ctenocephalides felis [2], 100%. In addition, the efficacy in the data set with Lucilia cuprina and in the data set with Musca domestica was 100% throughout.
As to `Cc1cc(C(F)(C(F)(F)F)C(F)(F)F)cc(C(F)(F)F)c1-n1cc(-c2cnc(C)c(C(=O)NC3CC3)c2)cn1` [I-T3-117], the lipophilicity (log P) in data set [1] came to 3.5. For the same compound, the efficacy (with Rhipicephalus sanguineus (setting [8]); in the data set on Ctenocephalides felis [3]; in the data set with Amblyomma hebraeum; in the data set with Boophilus microplus; in [4]; with Ctenocephalides felis [2]) was 100% each time. The efficacy with Lucilia cuprina and with Musca domestica was 100% throughout.
On to `Cc1cc(C(F)(C(F)(F)F)C(F)(F)F)cc(C)c1-n1cc(-c2cnc(C)c(C(=O)NC3CC3)c2)cn1` [I-T3-96], for which the “log P” value in data set [1] was found to be 3.3. The efficacy (in the data set with Rhipicephalus sanguineus (setting [8]); with Ctenocephalides felis [3]; in the data set on Amblyomma hebraeum; with Boophilus microplus; in [4]; in the data set on Ctenocephalides felis [2]) was 100% throughout. The efficacy in the data set on Lucilia cuprina and in the data set on Musca domestica was 100% in each case.
In the case of `N#CC1(NC(=O)c2cc(-c3cnn(-c4c(Cl)cc(C(F)(C(F)(F)F)C(F)(F)F)cc4OC(F)(F)F)c3)ccc2Cl)CC1` [I-T3-163], the “log P” value in data set [1] came out at 4.5. The efficacy (in the data set with Rhipicephalus sanguineus (setting [8]); in the data set with Ctenocephalides felis [3]; in the data set with Amblyomma hebraeum; with Boophilus microplus; in data set [4]; with Ctenocephalides felis [2]) was 100% throughout. In addition, the efficacy in the data set on Lucilia cuprina and in the data set on Musca domestica was 100% in each case.
Take `Cc1cc(C(F)(C(F)(F)F)C(F)(F)F)cc(C(F)(F)F)c1-n1cc(-c2cnc(C)c(C(=O)NC3(C#N)CC3)c2)cn1` [I-T3-119]: the “log P” value in data set [1] was 3.6. In addition, the efficacy (with Rhipicephalus sanguineus (setting [8]); in the data set with Ctenocephalides felis [3]; with Amblyomma hebraeum; in the data set on Boophilus microplus; in data set [4]; in the data set on Ctenocephalides felis [2]) was 100% each time. The efficacy in the data set on Lucilia cuprina and in the data set with Musca domestica was 100% in each case.

Source of the values: US9758485B2, “Compounds for controlling arthropods” (priority 2013, dated 2017).
